The values below are quoted from earlier work in patent publication US20240398651A1 (Neuro-Innovators, LLC., priority 2021, published 2024).

The conditions of data set [1]: in vivo.
The conditions of data set [2]: previous clinical trials, compared with aspirin.

The structures appear in SMILES notation.

Consider `O=C1CCc2cc(OCCCCc3nnnn3C3CCCCC3)ccc2N1` [Cilostazol], for which, in data set [1], the elimination half-life was 11 to 13 h. In data set [2], the hemorrhagic events result was “fewer hemorrhagic events” and the “incidence of recurrent stroke” value is listed as “significantly reduce the incidence of recurrent stroke”.
